From patent publication US9820992B2, “Method of treating non-small-cell lung cancer using pharmaceutical formulation containing thienotriazolodiazepine compounds” (ONCOETHIX GmbH, priority 2013, dated 2017)
Entries after “also recorded” stand apart in the source; their conditions may differ.

What was measured:
A549 cells [1] = experiment: MTT cell viability/proliferation assay, 72 h; type: cell-based
Protocol: (§1) Five established NSCLC cell lines (i.e. H2228, H3122, A549, HOP62 and HOP92) were exposed to increasing doses of compound (1-1) (OncoEthix SA, Switzerland). Effect on cell viability was determined by the MTT assay after 72 h exposure. The growth inhibition (GI) 50% values were determined by GraphPad Prism 5.0 software. And protein levels were analyzed by Western Blot using commercial antibodies. RNA was extracted with the Qiagen RNAEasy kit and reverse-transcribed using the Superscript First-Strand Synthesis System for RT-PCR kit following manufacturer's instructions. RT-PCR was performed using Fast SYBR Green Master Mix on a StepOnePlus Real-Time PCR System.
(§2) Five established NSCLC cell lines, HOP62, HOP92, A549, H2228, and H3122 harboring different oncogenic mutations for KRAS, LKB1, TP53 and ALK (FIG. 19) were exposed to increasing doses of compound (1-1) (OncoEthix SA, Switzerland) for 72 h and cell proliferation was evaluated by MTT assays. Results represent the mean±95% CI of at least 3 independent experiments performed in triplicate. Protein levels were analyzed by Western blot using commercial antibodies. For cell cycle analysis cells were stained with PI and analyzed using a FACScan flow cytometer after 24 h of treatment. RT-PCR was performed using Fast SYBR Green Master Mix on a StepOnePlus Real-Time PCR System. Results represent the mean±SD of at least 2 independent experiments, where *p<0.05 versus control cells (0.1% DMSO), employing Anova followed by Dunnett's Multiple Comparison Test. Concomitant compound (1-1) combination studies were performed in cell lines exposed for 48 h to increasing doses of compound (1-1) alone or in combination with everolimus or crizotinib, and assessed using the Chou & Talalay method. Combination Index (CI) was determined by median effect plot analysis using CalcuSyn software. CI<1 synergy, CI=1 additivity and CI>1 antagonist effects. Results represent the median and range of 3 independent experiments performed in triplicate.

H2228 cells [2] = experiment: MTT cell viability/proliferation assay, 72 h; type: cell-based; settings: Homo sapiens, NCI-H2228, H2228 cells (EML4-ALK-positive), 72-h exposure
Protocol: as §1, §2

H3122 cells = experiment: MTT cell viability/proliferation assay, 72 h; type: cell-based; settings: Homo sapiens, NCI-H3122, H3122 cells (EML4-ALK-positive), 72-h exposure
Protocol: as §1, §2

[3] = system: NSCLC cell lines HOP62, HOP92, A549, H2228, H3122; experiment: MTT proliferation assay in NSCLC cell line panel; type: cell-based; settings: five NSCLC cell lines
Protocol: as §2

NSCLC cells = experiment: Cell cycle analysis (PI staining, flow cytometer); type: cell-based; settings: 24 h exposure; dihydrate
Protocol: as §2

STAT3 = experiment: Cell signaling pathways assessment (Western blot); type: cell-based; settings: down-regulation after 24 h and up to 72 h exposure
Protocol: as §1

C-MYC = C-MYC protein and mRNA levels in NSCLC cell lines (Western blot, RT-PCR); type: cell-based; settings: NSCLC cell lines (Example 7)
Protocol: as §1

[4] = system: N-MYC mRNA in H3122 cells; experiment: N-MYC mRNA levels in H3122 cells (RT-PCR); type: cell-based
Protocol: as §1
Five established NSCLC cell lines, HOP62, HOP92, A549, H2228, and H3122 harboring different oncogenic mutations for KRAS, LKB1, TP53 and ALK (FIG. 19) were exposed to increasing doses of compound (1-1) (OncoEthix SA, Switzerland) for 72 h and cell proliferation was evaluated by MTT assays. […] Protein levels were analyzed by Western blot using commercial antibodies. For cell cycle analysis cells were stained with PI and analyzed using a FACScan flow cytometer after 24 h of treatment. […] Concomitant compound (1-1) combination studies were performed in cell lines exposed for 48 h to increasing doses of compound (1-1) alone or in combination with everolimus or crizotinib, and assessed using the Chou & Talalay method. […]

C-MYC in HOP92 cells = experiment: C-MYC mRNA and protein levels in HOP92 cells; type: cell-based; settings: 500 nM, after 4 hours, maintained after 24 hours
Protocol: as §2

[5] = system: N-MYC mRNA in HOP62 cells; experiment: N-MYC mRNA levels in HOP62 cells (RT-PCR); type: cell-based; settings: 500 nM, after 4 hours, maintained after 24 hours
Protocol: as §2

H2228 cells [6] = experiment: Concomitant combination with crizotinib (Chou & Talalay); type: cell-based; settings: combined with crizotinib, 48 h concomitant exposure, CI<1 synergy, CI=1 additivity, CI>1 antagonist, called additive
Protocol: as §2

A549 cells [7] = experiment: Concomitant combination with everolimus (Chou & Talalay); type: cell-based; settings: 48 h concomitant
Protocol: as §2

H2228 cells [8] = experiment: as above; type: cell-based; settings: 48 h concomitant
Protocol: as §2

HOP62 cells = experiment: as above; type: cell-based; settings: 48 h concomitant
Protocol: as §2

HOP92 cells = experiment: as above; type: cell-based; settings: 48 h concomitant
Protocol: as §2

H3122 tumor = H3122 tumor growth in nude mice; type: in vivo, male athymic NMRI nude mice; settings: gavage, continuous
Protocol: 5.10^6 H3122 cells were injected in the flank of male athymic NMRI nude mice, and mice were randomized to 3 groups (8 mice/group) when tumor volume reach 100 mm^3; vehicle (PBS, once daily, oral continuous), Compound (1-1) (50 mg/kg/bidaily, gavage, continuous), or crizotinib (25 mg/kg/daily, gavage, continuous).

In the case of `Cc1sc2c(c1C)C(c1ccc(Cl)cc1)=N[C@@H](CC(=O)Nc1ccc(O)cc1)c1nnc(C)n1-2` [Compound (1-1), 2-[(6S)-4-(4-chlorophenyl)-2,3,9-trimethyl-6H-thienol[3,2-f]-[1,2,4]triazolo[4,3-a][1,4]diazepin-6-yl]-N-(4-hydroxyphenyl)acetamide dihydrate], the “effects in A549 cells” value (A549 cells [1]; A549 cells with concurrent KRAS and LKB1 mutations) was “abrogate compound (1-1) effects”, the GI50 (A549 cells [1]; Homo sapiens, A549, EML4-ALK-negative (A49) cell line, 72 h exposure, MTT) was 0.432 µM and the GI50 (H2228 cells [2]) was 0.629 µM. For the same compound, the GI50 (H3122 cells) was 0.627 µM, the GI50 ([3]; 72 h-exposure, read-out: GI50 values across the cell line panel) was 0.1 to 0.7 µM and the “cytostatic effects in NSCLC cell lines” value ([3]; 72 h) was “cytostatic effects in 4 out of 5 NSCLC cell lines”. The “percentage of cells in S phase” value (NSCLC cells) was “reduction in the percentage of cells in S phase; also recorded: reduction of the S phase cell fraction”, the STAT3 regulation (STAT3) was “transient upregulation of STATS with a subsequent down-regulation” and the “C-MYC protein and mRNA levels” value (C-MYC) was “not altered”. For the same compound, the “N-MYC mRNA levels” value ([4]; EML4-ALK-positive H3122 cells (Example 7)) was “down-regulation”, the “N-MYC mRNA levels” value ([4]; H3122 cells, 500 nM, after 4 hours, maintained after 24 hours) was “rapid downregulation” and the “C-MYC mRNA and protein levels” value (C-MYC in HOP92 cells) was “rapid downregulation”. The “N-MYC mRNA levels” value [5] was “rapid downregulation”, the “Combination Index (CI)” value (H2228 cells [6]) was 0.9 and the “combination effect with everolimus” value (A549 cells [7]) was “additive/synergistic effects”. The “combination effect with everolimus” value (H2228 cells [8]) was “additive/synergistic effects”, the “combination effect with everolimus” value (HOP62 cells) was “additive/synergistic effects” and the “combination effect with everolimus” value (HOP92 cells) was “additive/synergistic effects”. The “tumor growth in H3122 tumor bearing-mice” value (H3122 tumor; 50 mg/kg/bidaily, vs vehicle, dihydrate) was “inhibited tumor growth to a similar extent as crizotinib; also recorded: slowed tumor progression”.

With `C[C@@H](Oc1cc(-c2cnn(C3CCNCC3)c2)cnc1N)c1c(Cl)ccc(F)c1Cl` [crizotinib, reference compound] the “tumor growth in H3122 tumor bearing-mice” value (H3122 tumor; 25 mg/kg/daily) was “inhibited tumor growth to a similar extent”.
